From patent US6632665B1, “Human gene encoding 3′-5′ exonuclease” (Wake Forest University, priority 1999, dated 2003)
Values belong to the molecule of their own block, whether it stands above or below them.

Columns and labels:
30 kDa exonuclease = target: T1, 30 kDa exonuclease (Homo sapiens, UniProt Q9NSU2); assay: in vitro enzyme inhibition of the 30 kDa 3'-5' exonuclease; assay type: biochemical; conditions: 30 kDa exonuclease purified from myeloblastic leukemia cells
T1 construct: endogenous in cells; host or cells: human myeloblastic leukemia cells (myeloblasts)
T1 sequence (Q9NSU2 1-314): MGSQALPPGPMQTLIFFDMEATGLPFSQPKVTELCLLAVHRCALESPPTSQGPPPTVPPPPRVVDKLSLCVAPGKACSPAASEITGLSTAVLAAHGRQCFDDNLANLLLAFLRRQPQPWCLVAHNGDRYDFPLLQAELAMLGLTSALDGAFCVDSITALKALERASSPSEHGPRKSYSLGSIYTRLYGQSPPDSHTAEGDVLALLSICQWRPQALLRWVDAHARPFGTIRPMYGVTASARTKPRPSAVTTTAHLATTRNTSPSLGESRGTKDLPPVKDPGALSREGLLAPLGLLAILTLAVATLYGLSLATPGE
Experimental: In order to assess the effect of intracellular TIMP that contributed to increased araC incorporation, exonuclease activity was partially purified from myeloblastic leukemia cells and in vitro enzyme inhibition studies ware carried out with TIMP. The majority of the cellular exonuclease activity was found in a band migrating on SDS-PAGE with a predicted molecular weight of 30 kDa.
Inhibition studies were also carried out with the purified 30 kD exonuclease and either TIMP or dGMP.
Useful methods in the practice of this example include the following: DNA pol δ may be purified from human myeloblasts using the methods of Syvaoja et al. (Proc. Natl. Acad. Sci., USA 87:6664-6668, 1990) through step 5. The specific activity of the DNA pol δ preparation is preferably about 3,500 units/mg. A unit of DNA pol δ catalyzes the incorporation of 1 nmol of total nucleotide per hour at 37° C. using 100 μM poly(dAdT) as template and reaction conditions as described by Lewis et al. (Biochemistry 33:14620-14624, 1994). […]
To measure the 3′-5′ exonuclease activity, a 23 mer is labeled with ^32P at the 5′ position and used in reactions as ssDNA. […] Samples are dried, resuspended in 5 μl 95% formamide, and analyzed by electrophoresis through 15% polyacrylamide sequencing gels. Radiolabeled bands are visualized and quantified by phosphorimagery (Molecular Dynamics). […]

HL-60 cells [1] = assay: intracellular accumulation of TIMP by HPLC; assay type: cell-based; conditions: HL-60 cells pretreated with 50 or 100 μM 6-MP
Experimental: (§1) HL-60 cells were incubated with 6-mercaptopurine (6-MP) to allow intracellular levels of thioinosine monophosphate (TIMP) to accumulate. […] Cytoplasmic 6-MP is converted to an active nucleotide metabolite TIMP by the action of hypoxanthine phosphoribosyltransferase (HPRT). […] Intracellular accumulation of TIMP was determined by HPLC [Zimm, et al., Cancer Res. 45:4156-4161 (1985)]. Upon addition of araC, the amount of araC incorporated into DNA increased and total DNA synthesis decreased in cells pretreated with 6-MP relative to untreated cells. At peak intracellular levels of TIMP, araC incorporation into DNA relative to total DNA synthesis was 20-fold greater in the 6-MP treated cells.

HL-60 cells [2] = assay: araC incorporation into DNA and total DNA synthesis in 6-MP pretreated HL-60 cells; assay type: cell-based
Experimental: as §1
(§2) Logarithmically growing cultures of HL-60 cells are incubated with 6-MP for varying times. The cultures are divided into two groups. The first group is treated with 1 μM ^3H-araC for 1 hour to measure araC in DNA. The second group is treated with ^3H-thymidine and 1 μM unlabeled araC for 1 hour to measure total DNA synthesis. Cells are pelleted, washed with PBS, and ^3H-araC or ^3H-thymidine in acid insoluble material is determined by scintillation counting. To measure araCTP in HL-60 cells, 6-MP treated samples are incubated with 1 μM ^3H-araC. Cells are pelleted and washed with PBS. The acid soluble nucleotides are collected and separated by HPLC (Partisil 10 SAX, Whatman). The fraction containing ^3HaraCTP is quantified by scintillation counting.

murine leukemia cells = murine leukemia cells treated for twelve hours with 6-MP; cited from earlier work
HL-60 cells [3] = assay: cell killing by growth curves and clonogenic assays of treated cells; assay type: cell-based; conditions: 6-MP pretreatment plus araC
HL-60 cells [4] = assay: intracellular araCTP quantified by HPLC in 6-MP treated cells; assay type: cell-based; conditions: cells treated with 6-MP up to twelve hours, harvested one hour after addition of araC
Experimental: The increased incorporation of araC into the DNA was not the result of increased accumulation of araC in the 6-MP treated cells. Cells were treated with 6-MP for varying times for up to twelve hours followed by incubation with […]. At time points up to twelve hours, cells were treated with araC and harvested one hour after addition of araC. The nucleotides were then separated using HPLC, and intracellular araCTP was quantified.
as §2

[5] = tested on: 30 kDa enzyme with 3'-5' exonuclease activity; assay: removal of 3' terminal araC from template primer by the 30 kDa exonuclease; assay type: biochemical, human, bovine; conditions: araC at the 3' terminus of the template primer
Excerpt: For protein purification from bovine thymus, an additional step using phenyl SUPEROSE was employed. In order to detect exonuclease activity in the cell extract, a biochemical assay was developed using DNA polymerase a and an oligonucleotide template primer with an araC analog at the 3′ terminus. In this assay, incorporation of radiolabeled nucleotides into the araC-template primer by the polymerase first requires that the araC analog be removed by a 3′-5′ exonuclease.

[6] = tested on: exonuclease activity specifically associated with DNA polymerase δ; conditions: Lee, et al. Biochemistry 19:215-219 (1980); cited from earlier work
[7] = tested on: 32P-labeled 23 nucleotide oligomer; assay: exonuclease activity of protein extracts of transformed BL21/DE3 cells; assay type: biochemical; conditions: protein extract of BL21/DE3 cells, IPTG induced
Experimental: To measure the 3′-5′ exonuclease activity, a 23 mer is labeled with ^32P at the 5′ position and used in reactions as ssDNA. Reaction mixtures (10 μl) are prepared containing 20 mM Tris-HCl, pH 7.5, 10 mM MgCl2, 2 mM DTT, 100 μg/mL BSA, 100 nM 23 mer, and 1 μl of the appropriate enzyme dilution. Incubation is 20 minutes at 37° C., and reactions are stopped by addition of 30 μl 95% ethanol. Samples are dried, resuspended in 5 μl 95% formamide, and analyzed by electrophoresis through 15% polyacrylamide sequencing gels. Radiolabeled bands are visualized and quantified by phosphorimagery (Molecular Dynamics). One unit of exonuclease is the amount of enzyme needed to degrade 1 pmol of 3′ termini in 1 min at 37° C.
The pTREX1h/T7 plasmid was electroporated into BL21/DE3 cells, which were grown at 23° C. to a density of OD595 0.3. Isopropylthiogalactopyranoside (IPTG) was added to induce overexpression and incubation of the cells was continued overnight. Protein extracts were prepared from the cells and enzyme activity assayed using a ^32P-labeled 23 nucleotide oligomer.
Template DNA was the mouse EST 480859. PCR was carried out as described for TREX1h and the resulting amplification product was subcloned as for TREX1h. The resulting expression plasmid was designated pTREX2m/T7 and expression of the encoded gene was carried out as described for TREX1h. […]

[8] = HL-60 cells pretreated with 6-MP relative to untreated cells, upon addition of araC

Molecule: Nc1ccn([C@@H]2O[C@H](CO)[C@@H](O)[C@@H]2O)c(=O)n1 [araC, 1-β-D-arabinofuranosylcytosine]
apparent rate of araC removal by the exonuclease [5]: approximately the same rate as the rate of deoxynucleotide monophosphate removal

B1: TREX2m: murine 3'-5' exonuclease polypeptide, SEQ ID NO:32, expressed from pTREX2m/T7 (protein, listed as Mus musculus)
chain: MSEPPRAETFVFLDLEATGLPNMDPEIAEISLFAVHRSSLENPERDDSGSLVLPRVLDKLTLCMCPERPFTAKASEITGLSSESLMHCGKAGFNGAVVRTLQGFLSRQEGPICLVAHNGFDYDFPLLCTELQRLGAHLPQDTVCLDTLPALRGLDRAHSHGTRAQGRKSYSLASLFHRYFQAEPSAAHSAEGDVHTLLLIFLHRAPELLAWADEQARSWAHIEPMYVPPDGPSLEA
exonuclease activity versus control cells with parental vector only [7]: 30 fold

B2: TREX1h: human 3'-5' exonuclease polypeptide, SEQ ID NO:2, expressed from pTREX1h/T7 (protein)
chain: T1 sequence (Q9NSU2 1-314)
modifications: HOMO SAPIENS
exonuclease activity versus control cells with parental vector only [7]: 30 fold

The next lines start with results.

Ki (30 kDa exonuclease): 56 µM
Molecule: Nc1nc2c(ncn2[C@H]2C[C@H](O)[C@@H](COP(=O)(O)O)O2)c(=O)[nH]1 [dGMP]

time of peak intracellular TIMP concentration (HL-60 cells [1]): approximately twelve
variation of intracellular araCTP levels during the time course (HL-60 cells [4]): less than two-fold
Molecule: Sc1ncnc2nc[nH]c12 [6-MP, 6-mercaptopurine]
amount of araC incorporated into DNA (HL-60 cells [2]; [8]): increased
total DNA synthesis (HL-60 cells [2]; [8]): decreased
araC incorporation into DNA relative to total DNA synthesis, 6-MP treated vs untreated cells (HL-60 cells [2]; HL-60 cells pretreated with 6-MP, at peak intracellular levels of TIMP, then araC): 20 fold
intracellular level of TIMP (murine leukemia cells): approximately 180 μM
cell killing (HL-60 cells [3]): increase in cell killing

Ki (30 kDa exonuclease): 17 µM
Molecule: O=P(O)(O)OC[C@H]1O[C@@H](n2cnc3c(S)ncnc32)[C@H](O)[C@@H]1O [TIMP, thioinosine monophosphate]
inhibition of DNA polymerase δ associated exonuclease activity [6]: inhibit exonuclease activity
